Source: patent US20210070748A1, “INHIBITORS OF BRUTONS TYROSINE KINASE” (Pharmacyclics LLC, priority 2015, published 2021)
Values belong to the compound of their own block, whether it stands above or below them.

Columns and labels:
Assay type in all cases: biochemical
TEC = target: T1, TEC (Homo sapiens, UniProt P42680); assay: Inhibition of a panel of kinases, in vitro HotSpot kinase assay: TEC; settings: D-compounds panel data; 1 μM ATP
T1 sequence (P42680 1-631): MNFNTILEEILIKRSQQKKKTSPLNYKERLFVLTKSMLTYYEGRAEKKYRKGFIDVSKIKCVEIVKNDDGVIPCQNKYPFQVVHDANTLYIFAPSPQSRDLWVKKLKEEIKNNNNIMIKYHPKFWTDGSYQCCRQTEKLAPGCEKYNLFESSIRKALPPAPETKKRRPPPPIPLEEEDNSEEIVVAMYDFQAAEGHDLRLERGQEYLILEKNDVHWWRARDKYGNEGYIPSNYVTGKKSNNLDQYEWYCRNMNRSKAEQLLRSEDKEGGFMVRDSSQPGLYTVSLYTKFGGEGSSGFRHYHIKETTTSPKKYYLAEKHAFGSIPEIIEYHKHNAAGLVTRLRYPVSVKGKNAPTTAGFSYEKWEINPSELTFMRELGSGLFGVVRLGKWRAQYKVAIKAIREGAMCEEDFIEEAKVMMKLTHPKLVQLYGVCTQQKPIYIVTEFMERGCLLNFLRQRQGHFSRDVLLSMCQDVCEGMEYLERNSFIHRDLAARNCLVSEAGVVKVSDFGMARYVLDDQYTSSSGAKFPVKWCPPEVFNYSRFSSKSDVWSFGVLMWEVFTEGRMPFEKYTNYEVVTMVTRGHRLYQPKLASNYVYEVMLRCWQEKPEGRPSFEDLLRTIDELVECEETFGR
Experimental: (§1) The degree of inhibition of a panel of kinases is determined using the in vitro HotSpot kinase assay (purified enzymes, ^33P-ATP, an appropriate substrate and 1 μM ATP).

SRC = SRC (Homo sapiens, UniProt P12931); assay: Inhibition of a panel of kinases, in vitro HotSpot kinase assay: SRC; settings: D-compounds panel data; 1 μM ATP
Experimental: as §1

EGFR = EGFR (Homo sapiens, UniProt P00533); assay: Inhibition of a panel of kinases, in vitro HotSpot kinase assay: EGFR; settings: D-compounds panel data; 1 μM ATP
Experimental: as §1

LCK = LCK (Homo sapiens, UniProt P06239); assay: Inhibition of a panel of kinases, in vitro HotSpot kinase assay: LCK; settings: D-compounds panel data; 1 μM ATP; read-out: IC50 LCK
JAK3 = target: T2, JAK3 (Homo sapiens, UniProt P52333); assay: Inhibition of a panel of kinases, in vitro HotSpot kinase assay: JAK3; settings: D-compounds panel data; 1 μM ATP; read-out: IC50 JAK3
T2 sequence (P52333 1-1124): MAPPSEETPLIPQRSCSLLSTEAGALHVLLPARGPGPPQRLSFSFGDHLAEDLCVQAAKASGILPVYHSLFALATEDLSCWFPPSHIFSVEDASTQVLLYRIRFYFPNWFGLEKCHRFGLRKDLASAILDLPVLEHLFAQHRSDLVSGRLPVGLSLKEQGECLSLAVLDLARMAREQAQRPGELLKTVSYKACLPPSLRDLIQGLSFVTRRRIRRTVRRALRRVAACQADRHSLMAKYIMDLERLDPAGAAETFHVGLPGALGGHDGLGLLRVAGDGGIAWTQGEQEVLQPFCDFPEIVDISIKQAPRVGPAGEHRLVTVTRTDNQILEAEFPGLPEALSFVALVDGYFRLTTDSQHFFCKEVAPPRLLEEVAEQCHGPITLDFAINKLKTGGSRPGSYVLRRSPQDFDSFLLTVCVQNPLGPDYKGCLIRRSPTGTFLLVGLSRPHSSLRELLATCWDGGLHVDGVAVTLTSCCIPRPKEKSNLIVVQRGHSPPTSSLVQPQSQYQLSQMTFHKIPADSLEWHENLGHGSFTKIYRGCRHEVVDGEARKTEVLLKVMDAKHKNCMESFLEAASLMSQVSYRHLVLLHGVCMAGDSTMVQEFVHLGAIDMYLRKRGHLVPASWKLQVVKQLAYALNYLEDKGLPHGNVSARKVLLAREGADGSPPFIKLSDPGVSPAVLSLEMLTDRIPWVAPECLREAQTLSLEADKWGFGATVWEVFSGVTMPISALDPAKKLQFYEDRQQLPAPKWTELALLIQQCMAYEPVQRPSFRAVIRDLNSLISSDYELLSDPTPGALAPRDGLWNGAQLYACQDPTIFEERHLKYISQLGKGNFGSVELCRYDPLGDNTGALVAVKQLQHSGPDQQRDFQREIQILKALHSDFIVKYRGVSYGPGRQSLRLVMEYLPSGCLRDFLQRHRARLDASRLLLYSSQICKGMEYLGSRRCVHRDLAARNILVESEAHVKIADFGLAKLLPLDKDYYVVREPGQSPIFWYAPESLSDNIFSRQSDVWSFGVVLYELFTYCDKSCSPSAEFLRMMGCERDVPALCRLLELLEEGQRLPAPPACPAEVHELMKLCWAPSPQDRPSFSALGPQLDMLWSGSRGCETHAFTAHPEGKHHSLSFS

LCK, sequence (P06239 whole entry): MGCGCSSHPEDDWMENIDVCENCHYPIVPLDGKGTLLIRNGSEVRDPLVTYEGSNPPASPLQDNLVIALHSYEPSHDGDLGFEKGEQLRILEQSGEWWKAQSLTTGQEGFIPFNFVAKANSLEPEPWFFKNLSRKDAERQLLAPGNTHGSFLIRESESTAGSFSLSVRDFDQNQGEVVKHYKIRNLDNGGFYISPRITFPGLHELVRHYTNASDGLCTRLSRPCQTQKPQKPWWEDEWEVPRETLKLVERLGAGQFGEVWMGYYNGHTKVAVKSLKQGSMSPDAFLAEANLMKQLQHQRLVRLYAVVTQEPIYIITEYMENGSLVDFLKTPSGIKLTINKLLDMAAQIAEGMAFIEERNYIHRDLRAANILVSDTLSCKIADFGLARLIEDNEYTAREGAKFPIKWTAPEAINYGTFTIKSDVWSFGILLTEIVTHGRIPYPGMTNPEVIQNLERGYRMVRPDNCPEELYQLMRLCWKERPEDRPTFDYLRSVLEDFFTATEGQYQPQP
EGFR, sequence (P00533 25-1210): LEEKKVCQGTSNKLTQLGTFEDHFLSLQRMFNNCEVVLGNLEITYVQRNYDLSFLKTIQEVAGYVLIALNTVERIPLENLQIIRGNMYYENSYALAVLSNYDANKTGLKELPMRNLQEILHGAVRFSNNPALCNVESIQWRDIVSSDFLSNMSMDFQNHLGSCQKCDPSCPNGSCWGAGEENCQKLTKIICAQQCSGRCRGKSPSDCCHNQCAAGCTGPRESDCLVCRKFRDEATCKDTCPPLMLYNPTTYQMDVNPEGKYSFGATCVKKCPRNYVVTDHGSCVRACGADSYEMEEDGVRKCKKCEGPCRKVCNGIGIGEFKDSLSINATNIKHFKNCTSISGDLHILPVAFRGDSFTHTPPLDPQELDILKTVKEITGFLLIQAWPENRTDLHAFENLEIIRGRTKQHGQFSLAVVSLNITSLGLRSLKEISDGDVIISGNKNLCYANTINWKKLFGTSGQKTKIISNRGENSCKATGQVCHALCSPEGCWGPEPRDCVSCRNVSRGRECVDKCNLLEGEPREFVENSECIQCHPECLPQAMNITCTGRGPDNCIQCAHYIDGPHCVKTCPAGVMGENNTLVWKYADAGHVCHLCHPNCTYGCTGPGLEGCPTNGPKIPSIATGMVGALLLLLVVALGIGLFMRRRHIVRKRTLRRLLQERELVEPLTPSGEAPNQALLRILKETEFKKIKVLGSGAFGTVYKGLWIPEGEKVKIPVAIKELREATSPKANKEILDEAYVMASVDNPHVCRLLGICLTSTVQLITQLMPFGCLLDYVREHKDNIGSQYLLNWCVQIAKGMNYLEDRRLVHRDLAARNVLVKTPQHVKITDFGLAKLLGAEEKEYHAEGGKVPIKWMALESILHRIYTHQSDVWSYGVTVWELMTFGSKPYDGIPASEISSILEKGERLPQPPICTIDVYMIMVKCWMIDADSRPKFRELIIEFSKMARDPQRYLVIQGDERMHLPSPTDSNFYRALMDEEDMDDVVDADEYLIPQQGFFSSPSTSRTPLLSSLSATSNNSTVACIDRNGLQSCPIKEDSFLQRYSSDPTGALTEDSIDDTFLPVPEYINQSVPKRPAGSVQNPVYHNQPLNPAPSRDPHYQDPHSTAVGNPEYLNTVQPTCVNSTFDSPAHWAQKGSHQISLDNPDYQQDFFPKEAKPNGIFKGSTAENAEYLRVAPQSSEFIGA
SRC, sequence (P12931 whole entry): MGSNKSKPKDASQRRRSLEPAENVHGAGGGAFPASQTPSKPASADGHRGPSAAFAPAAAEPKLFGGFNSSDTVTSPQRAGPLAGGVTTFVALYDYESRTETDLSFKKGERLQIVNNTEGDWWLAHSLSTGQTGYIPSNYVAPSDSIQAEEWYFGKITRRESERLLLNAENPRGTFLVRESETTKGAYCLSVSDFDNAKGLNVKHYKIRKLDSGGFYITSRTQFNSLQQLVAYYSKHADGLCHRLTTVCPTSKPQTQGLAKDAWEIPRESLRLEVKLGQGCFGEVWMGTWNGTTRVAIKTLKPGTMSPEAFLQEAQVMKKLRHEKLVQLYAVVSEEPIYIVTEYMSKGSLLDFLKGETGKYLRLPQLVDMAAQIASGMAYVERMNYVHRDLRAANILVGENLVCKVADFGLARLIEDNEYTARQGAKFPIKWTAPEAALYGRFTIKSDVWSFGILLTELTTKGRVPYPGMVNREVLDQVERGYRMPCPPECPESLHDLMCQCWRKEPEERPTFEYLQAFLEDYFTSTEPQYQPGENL

Structure (SMILES): C[C@@H]1[C@H](NC(=O)c2c[nH]c(C3CC3)n2)CCCN1c1cnc(C(N)=O)c(Nc2cnn(C)c2)n1 [Example D-264, 5-[(2R,3R)-3-(2-cyclopropyl-1H-imidazole-4-amido)-2-methylpiperidin-1-yl]-3-[(1-methyl-1H-pyrazol-4-yl)amino]pyrazine-2-carboxamide]
IC50 (TEC): ≤ 10 nM
IC50 (SRC): 10 to 100 nM
IC50 (EGFR): 100 to 1000 nM
IC50 (LCK): 10 to 100 nM
IC50 (JAK3): 1000 to 10000 nM

Structure (SMILES): C[C@@H]1[C@H](NC(=O)c2cc(C3CC3)n[nH]2)CCCN1c1cnc(C(N)=O)c(Nc2cnn(C)c2)n1 [Example D-252, 5-[(2R,3R)-3-(3-cyclopropyl-1H-pyrazole-5-amido)-2-methylpiperidin-1-yl]-3-[(1-methyl-1H-pyrazol-4-yl)amino]pyrazine-2-carboxamide]
IC50 (TEC): ≤ 10 nM
IC50 (SRC): 10 to 100 nM
IC50 (EGFR): 100 to 1000 nM
IC50 (LCK): 10 to 100 nM
IC50 (JAK3): 100 to 1000 nM

Structure (SMILES): C[C@@H]1[C@H](NC(=O)c2cc3c(n2C)CC(C)(C)C3)CCCN1c1cnc(C(N)=O)c(Nc2cnn(C)c2)n1 [Example D-19, 3-[(1-methyl-1H-pyrazol-4-yl)amino]-5-[(2R,3R)-2-methyl-3-{1,5,5-trimethyl-1H,4H,5H,6H-cyclopenta[b]pyrrole-2-amido}piperidin-1-yl]pyrazine-2-carboxamide]
IC50 (TEC): 10 to 100 nM
IC50 (SRC): 100 to 1000 nM
IC50 (EGFR): 100 to 1000 nM
IC50 (LCK): 100 to 1000 nM
IC50 (JAK3): 100 to 1000 nM

Structure (SMILES): C[C@@H]1[C@H](NC(=O)c2ccc(C3CC3)cc2)CCCN1c1cnc(C(N)=O)c(Nc2cnn(C3CC3)c2)n1 [Example D-279, 3-[(1-cyclopropyl-1H-pyrazol-4-yl)amino]-5-[(2R,3R)-3-(4-cyclopropylbenzamido)-2-methylpiperidin-1-yl]pyrazine-2-carboxamide]
IC50 (TEC): ≤ 10 nM
IC50 (SRC): 100 to 1000 nM
IC50 (EGFR): 1000 to 10000 nM
IC50 (LCK): 100 to 1000 nM
IC50 (JAK3): > 10000 nM

Structure (SMILES): C[C@@H]1[C@H](NC(=O)c2ccc(C3CC3)cn2)CCCN1c1cnc(C(N)=O)c(Nc2cnn(C)c2)n1 [Example D-21, 5-[(2R,3R)-3-(5-cyclopropylpyridine-2-amido)-2-methylpiperidin-1-yl]-3-[(1-methyl-1H-pyrazol-4-yl)amino]pyrazine-2-carboxamide]
IC50 (TEC): 10 to 100 nM
IC50 (SRC): 10 to 100 nM
IC50 (EGFR): 1000 to 10000 nM
IC50 (LCK): 100 to 1000 nM
IC50 (JAK3): 1000 to 10000 nM

Structure (SMILES): C[C@@H]1[C@H](NC(=O)c2ccc(C3CC3)cc2)CCCN1c1cnc(C(N)=O)c(Nc2ccc3c(c2)OC(F)(F)O3)n1 [Example D-315, 5-[(2R,3R)-3-(4-cyclopropylbenzamido)-2-methylpiperidin-1-yl]-3-[(2,2-difluoro-2H-1,3-benzodioxol-5-yl)amino]pyrazine-2-carboxamide]
IC50 (TEC): 1000 to 10000 nM
IC50 (SRC): > 10000 nM
IC50 (EGFR): > 10000 nM
IC50 (LCK): > 10000 nM
IC50 (JAK3): > 10000 nM

Structure (SMILES): C[C@@H]1[C@H](NC(=O)c2ccc(C(C)(C)O)cc2F)CCCN1c1cnc(C(N)=O)c(Nc2cnn(C)c2)n1 [Example D-302, 5-[(2R,3R)-3-[2-fluoro-4-(2-hydroxypropan-2-yl)benzamido]-2-methylpiperidin-1-yl]-3-[(1-methyl-1H-pyrazol-4-yl)amino]pyrazine-2-carboxamide]
IC50 (TEC): ≤ 10 nM
IC50 (SRC): 10 to 100 nM
IC50 (EGFR): 10 to 100 nM
IC50 (LCK): 10 to 100 nM
IC50 (JAK3): 100 to 1000 nM

Continued, values first:

IC50 (TEC): 10 to 100 nM
IC50 (SRC): 100 to 1000 nM
IC50 (EGFR): 1000 to 10000 nM
IC50 (LCK): 1000 to 10000 nM
IC50 (JAK3): > 10000 nM
Structure (SMILES): C[C@@H]1[C@H](NC(=O)c2ccc(C(C)(C)C)cc2)CCCN1c1cnc(C(N)=O)c(Nc2cnn(C)c2)n1 [Example D-22, 5-[(2R,3R)-3-(4-tert-butylbenzamido)-2-methylpiperidin-1-yl]-3-[(1-methyl-1H-pyrazol-4-yl)amino]pyrazine-2-carboxamide]

IC50 (TEC): 10 to 100 nM
IC50 (SRC): 100 to 1000 nM
IC50 (EGFR): 100 to 1000 nM
IC50 (LCK): 100 to 1000 nM
IC50 (JAK3): 1000 to 10000 nM
Structure (SMILES): C[C@@H]1[C@H](NC(=O)c2ccc(C3CC3)cc2)CCCN1c1cnc(C(N)=O)c(Nc2ccc(C3CCN(C)CC3)cc2)n1 [Example D-301, 5-[(2R,3R)-3-(4-cyclopropylbenzamido)-2-methylpiperidin-1-yl]-3-{[4-(1-methylpiperidin-4-yl)phenyl]amino}pyrazine-2-carboxamide]

IC50 (TEC): 10 to 100 nM
IC50 (SRC): 100 to 1000 nM
IC50 (EGFR): 1000 to 10000 nM
IC50 (LCK): 100 to 1000 nM
IC50 (JAK3): > 10000 nM
Structure (SMILES): C[C@@H]1[C@H](NC(=O)c2ccc(C3CC3)cc2)CCCN1c1cnc(C(N)=O)c(Nc2cn[nH]c2)n1 [Example D-282, 5-[(2R,3R)-3-(4-cyclopropylbenzamido)-2-methylpiperidin-1-yl]-3-[(1H-pyrazol-4-yl)amino]pyrazine-2-carboxamide]

IC50 (TEC): ≤ 10 nM
IC50 (SRC): 10 to 100 nM
IC50 (EGFR): 100 to 1000 nM
IC50 (LCK): 10 to 100 nM
IC50 (JAK3): 100 to 1000 nM
Structure (SMILES): CC(=O)N1CCN(c2ccc(Nc3nc(N4CCC[C@@H](NC(=O)c5ccc(C6CC6)cc5)[C@H]4C)cnc3C(N)=O)cc2)CC1 [Example D-295, 3-{[4-(4-acetylpiperazin-1-yl)phenyl]amino}-5-[(2R,3R)-3-(4-cyclopropylbenzamido)-2-methylpiperidin-1-yl]pyrazine-2-carboxamide]

IC50 (TEC): 1000 to 10000 nM
IC50 (SRC): 1000 to 10000 nM
IC50 (EGFR): 1000 to 10000 nM
IC50 (LCK): 1000 to 10000 nM
IC50 (JAK3): > 10000 nM
Structure (SMILES): Cc1c(Nc2nc(N3CCC[C@@H](NC(=O)c4ccc(C5CC5)cc4)[C@H]3C)cnc2C(N)=O)cnn1C [Example D-271, 5-[(2R,3R)-3-(4-cyclopropylbenzamido)-2-methylpiperidin-1-yl]-3-[(1,5-dimethyl-1H-pyrazol-4-yl)amino]pyrazine-2-carboxamide]

IC50 (TEC): 10 to 100 nM
IC50 (SRC): 10 to 100 nM
IC50 (EGFR): 1000 to 10000 nM
IC50 (LCK): 100 to 1000 nM
IC50 (JAK3): > 10000 nM
Structure (SMILES): C[C@@H]1[C@H](NC(=O)c2ccc(C3CC3)nc2)CCCN1c1cnc(C(N)=O)c(Nc2ccc(N3CCC(F)(F)CC3)cc2)n1 [Example D-305, 5-[(2R,3R)-3-(6-cyclopropylpyridine-3-amido)-2-methylpiperidin-1-yl]-3-{[4-(4,4-difluoropiperidin-1-yl)phenyl]amino}pyrazine-2-carboxamide]

IC50 (TEC): 10 to 100 nM
IC50 (SRC): 10 to 100 nM
IC50 (EGFR): 100 to 1000 nM
IC50 (LCK): 100 to 1000 nM
IC50 (JAK3): 1000 to 10000 nM
Structure (SMILES): CC(=O)N1CCC(c2ccc(Nc3nc(N4CCC[C@@H](NC(=O)c5ccc(C6CC6)cc5)[C@H]4C)cnc3C(N)=O)cc2)CC1 [Example D-296, 3-{[4-(1-acetylpiperidin-4-yl)phenyl]amino}-5-[(2R,3R)-3-(4-cyclopropylbenzamido)-2-methylpiperidin-1-yl]pyrazine-2-carboxamide]

IC50 (TEC): 10 to 100 nM
IC50 (SRC): 10 to 100 nM
IC50 (EGFR): 100 to 1000 nM
IC50 (LCK): 10 to 100 nM
IC50 (JAK3): 1000 to 10000 nM
Structure (SMILES): C[C@@H]1[C@H](NC(=O)c2ccc(C(C)(C)C)cc2)CCCN1c1cnc(C(N)=O)c(Nc2ccc(OC3CCN(C)CC3)cc2)n1 [Example D-291, 5-[(2R,3R)-3-(4-tert-butylbenzamido)-2-methylpiperidin-1-yl]-3-({4-[(1-methylpiperidin-4-yl)oxy]phenyl}amino)pyrazine-2-carboxamide]
